The test system of test [1] is HEK-293 human embryonic kidney cells. Briefly: Cytotoxicity against human embryonic kidney cells. It is filed as cell-based. As to conditions: for inhibition at 20 µM: read-out: Percentage growth inhibition at 20 μM, HEK-293. On the procedure:
(§1) Antiplasmodial activity was determined using a high-content imaging assay, as described previously.[10],[24] The cytotoxicity of the antiplasmodial compounds was evaluated against human embryonic kidney cells (HEK-293) following an established protocol.[10],[24] Human red blood cells for culture of P. falciparum were provided by the Australian Red Cross Blood Bank in accordance with their routine Material Transfer Agreement (MTA) for nonclinical blood product supply. These bioassay studies were approved by the Griffith University Biosafety and Human Ethics Committee (GU ref no. ESK/03/12/HREC; 03/08/11019).

The test system of test [2] is Plasmodium falciparum chloroquine-sensitive (3D7) strain. Briefly: Antiplasmodial high-content imaging assay, 3D7 strain. It is filed as cell-based. The following applies: for IC50: Plasmodium falciparum; for inhibition of plasmodial growth at 20 μM: 20 μM concentration, strain not specified (3D7/Dd2).
Test [3] has as its system Plasmodium falciparum chloroquine-resistant (Dd2) strain. Briefly: Antiplasmodial high-content imaging assay, Dd2 strain. It is filed as cell-based. On the procedure:
as §1

Test [4] deals with cap-dependent and independent translation initiation. The experiment in a line: Translation inhibition assay (luciferase model). It is filed as biochemical. The following applies: in vitro. On the procedure: Luciferase inhibition activity assays were performed following standard procedures described previously.[9],[10]
Setting [5] is: P. falciparum 3D7 (chloroquine-sensitive), read-out: IC50 3D7.
[6] abbreviates: P. falciparum Dd2 (chloroquine-resistant), read-out: IC50 Dd2.

Where two headings read alike, the source gives them in different places.

Consider `C[C@H]1[C@@H](O)O[C@@H]2O[C@@]3(C)CC[C@H]4[C@H](C)CC[C@@H]1[C@@]24OO3` [DHA], for which, in test [1] (HEK293, HEK-293 cells), the inhibition (in general, how much of the control response was suppressed) at 20 µM worked out at 50%.
`C[C@H]1[C@H](OC(=O)CCC(=O)O)O[C@@H]2O[C@@]3(C)CC[C@H]4[C@H](C)CC[C@@H]1[C@@]24OO3` [artesunate]: in test [1] (HEK293, HEK-293 cells), the inhibition at 20 µM was determined as 75%.
On to `CCN(CC)CCCC(C)Nc1ccnc2cc(Cl)ccc12` (stereo not drawn) [chloroquine], for which the concentration for half-maximal inhibition (IC50) (commonly the concentration that gives 50% inhibition) amounted to 4.5 nM in test [2] (3D7, read-out: IC50 3D7) and 46 nM in test [3] (DD2, read-out: IC50 Dd2). For the same compound, in test [1] (HEK293, read-out: Percentage growth inhibition at 40 μM, HEK-293), the inhibition at 40 µM turned out to be 60%.
On to `O=C1C[C@@H](c2ccccc2)Oc2cc(O)c(Cc3cccc(O)c3O)c(O)c21` [compound 4, (S)-6-(2,3-dihydroxybenzyl)-5,7-dihydroxy-2-phenylchroman-4-one], for which, in test [2], the “inhibition of plasmodial growth at 20 μM” value is “inhibited plasmodial growth moderately”. Also, the translational inhibitory activity result in test [4] was “none showed significant translational inhibitory activity”.
As to `O=c1cc(-c2ccccc2)oc2c(Cc3cccc(O)c3O)c(O)cc(O)c12` [compound 5, 8-(2,3-dihydroxybenzyl)-5,7-dihydroxy-2-phenyl-4H-chromen-4-one], the “inhibition of plasmodial growth at 20 μM” value in test [2] is listed as “inhibited plasmodial growth moderately”. Also, the translational inhibitory activity entry in test [4] is “none showed significant translational inhibitory activity”.
As to `O=C1C[C@@H](c2ccccc2)Oc2c(Cc3cccc(O)c3O)c(O)c(Cc3cccc(O)c3O)c(O)c21` [compound 6, 3″-hydroxygracinol], in test [4], the translational inhibitory activity result is recorded as “none showed significant translational inhibitory activity”.
The same measure, in the same setting: next, `O=C1C=C/C(=C/[C@H](O)COC(=O)c2ccccc2)O1` [compound 9, (Z)-melodorinol]: “none showed significant translational inhibitory activity”.
`COC(=O)/C=C/C(=O)C[C@H](O)COC(=O)c1ccccc1` [compound 10, 7-hydroxy-6-hydromelodienone]: the translational inhibitory activity entry in test [4] is recorded as “none showed significant translational inhibitory activity”. The inhibition at 40 µM in test [1] (HEK293, HEK-293 cells, 40 μM, read-out: Percentage growth inhibition at 40 μM, HEK-293) is 100%.
Turning to `O=c1cc(-c2ccccc2)oc2cc(O)cc(O)c12` [compound 12, 5,7-dihydroxyflavone], the translational inhibitory activity entry in test [4] is listed as “none showed significant translational inhibitory activity”.
In the case of `COc1ccc(C[C@H](N)C(=O)N[C@H]2[C@@H](O)[C@H](n3cnc4c(N(C)C)ncnc43)O[C@@H]2CO)cc1` [puromycin], the IC50 in test [2] (setting [5]) was 23 nM; in test [3] (setting [6]) it was 45 nM; in test [1] (HEK293, HEK-293 cells), 360 nM.
In test [1] (HEK293, HEK-293 cells), `CCc1nc(N)nc(N)c1-c1ccc(Cl)cc1` [pyrimethamine] registered an IC50 of 4200 nM.
`COc1ccc2nc3cc(Cl)ccc3c(Nc3cc(CN4CCCC4)c(O)c(CN4CCCC4)c3)c2n1` [pyronaridine]: the IC50 in test [2] (setting [5]) was found to be 3.6 nM; in test [3] (setting [6]), 7.5 nM; in test [1] (HEK293, HEK-293 cells), 1800 nM.
